Our source for the TGI and GI50 values is PubChem BioAssay (NCI).

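Five concentrations, 48 hours, 96-well plates. The concentration for 50% growth inhibition is given as GI50. The concentration for full growth arrest is given as TGI.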 A value given as a limit tells only on which side of the number the result lay.

Test systems include TK-10 renal; UACC-257 melanoma; SF-539 CNS; HT29 colon; COLO 205 colon; SF-295 CNS; 786-0 renal; CAKI-1 renal; SW-620 colon; OVCAR-8 ovarian.
What all share (assay): DTP human tumour cell line panel, 48 h

Consider `O=Cc1ccc(-c2cccs2)s1`, for which the TGI with TK-10 renal is 11.7 µM; with UACC-257 melanoma it was 15.1 µM; in the assay with SF-539 CNS, above 100 µM; in the assay on HT29 colon, above 68.1 µM; with COLO 205 colon, 54.8 µM; in the assay on SF-295 CNS, above 100 µM. For the same compound, the concentration for total growth inhibition (TGI) with 786-0 renal was above 100 µM; in the assay with CAKI-1 renal it was 49.7 µM; in the assay on SW-620 colon, above 100 µM; in the assay with OVCAR-8 ovarian, above 100 µM.
`C[C-](O)O.O/C(=C\[C-](O)c1ccccc1)c1ccccc1.O/C(=C\[C-](O)c1ccccc1)c1ccccc1.[Nd+3]` (stereo not given): the GI50 was 20900 nM in the assay with TK-10 renal; 15500 nM in the assay with UACC-257 melanoma; 5500 nM in the assay on SF-539 CNS; 10600 nM in the assay on HT29 colon; 14700 nM in the assay with COLO 205 colon; 372 nM with SF-295 CNS. Further, the GI50 in the assay with 786-0 renal is 9650 nM; in the assay with CAKI-1 renal, 11900 nM; in the assay with SW-620 colon, 6940 nM; with OVCAR-8 ovarian it was 4480 nM. The TGI amounted to 94.2 µM in the assay on TK-10 renal; 42.3 µM with UACC-257 melanoma; 25.5 µM in the assay on SF-539 CNS; 22.5 µM with HT29 colon; 36.3 µM in the assay on COLO 205 colon; 19.4 µM with SF-295 CNS. Also, the total growth inhibition concentration (TGI) in the assay with 786-0 renal is 32.7 µM; in the assay with CAKI-1 renal it was 42.2 µM; in the assay on SW-620 colon, above 100 µM; in the assay with OVCAR-8 ovarian, 55 µM.
Take `CCN(CC)CCCC(C)Nc1c2ccc(C)cc2nc2ccc(OC)cc12` (stereo not given): the GI50 with TK-10 renal is 569 nM; in the assay on UACC-257 melanoma, 1620 nM; in the assay on SF-539 CNS, 1710 nM; in the assay with HT29 colon, 370 nM; with COLO 205 colon, 1210 nM; in the assay on SF-295 CNS, 1470 nM. Moreover, the GI50 with 786-0 renal is 2050 nM; with CAKI-1 renal, 2680 nM; with SW-620 colon, 709 nM; in the assay with OVCAR-8 ovarian, 521 nM. Also, the total growth inhibition concentration (TGI) with TK-10 renal was 12.5 µM; with UACC-257 melanoma, 3.05 µM; in the assay with SF-539 CNS, 3.98 µM; in the assay with HT29 colon it was 3.32 µM; with COLO 205 colon it was 2.96 µM; in the assay on SF-295 CNS it was 4.89 µM. Besides, the total growth inhibition concentration (TGI) is 8.58 µM in the assay on 786-0 renal, 8.98 µM in the assay on CAKI-1 renal, 10.2 µM in the assay with SW-620 colon and 3.53 µM with OVCAR-8 ovarian.
For the compound `Cc1cc(N/N=C/c2nc(-c3ccc(Cl)cc3)oc2C)c2cc(Cl)ccc2n1`, the GI50 is 1850 nM with TK-10 renal; 1930 nM in the assay with UACC-257 melanoma; 1880 nM in the assay with SF-539 CNS; 1970 nM with HT29 colon; 2310 nM in the assay on COLO 205 colon; 10200 nM in the assay with SF-295 CNS. Besides, the GI50 in the assay with 786-0 renal is 1550 nM; with CAKI-1 renal, 2000 nM; in the assay on SW-620 colon it was 1560 nM; in the assay on OVCAR-8 ovarian it was 2050 nM. Also, the TGI with TK-10 renal worked out at 3.48 µM; with UACC-257 melanoma, 4.52 µM; in the assay with SF-539 CNS, 3.46 µM; in the assay with HT29 colon, 4.95 µM; in the assay on COLO 205 colon, 6.57 µM; in the assay on SF-295 CNS, 22.6 µM. For the same compound, the concentration for total growth inhibition (TGI) in the assay with 786-0 renal worked out at 2.99 µM; in the assay on CAKI-1 renal, 4.33 µM; in the assay with SW-620 colon, 3.51 µM; in the assay on OVCAR-8 ovarian it was 5.06 µM.
Take `COC(=O)c1nc(N)[nH]c(=O)c1CCCCCc1c(C(=O)OC)nc(N)[nH]c1=O`: the TGI in the assay on TK-10 renal, in the assay with UACC-257 melanoma, in the assay with SF-539 CNS, in the assay on HT29 colon, with COLO 205 colon and with SF-295 CNS was above 50 µM in each case. For the same compound, the total growth inhibition concentration (TGI) in the assay on 786-0 renal, in the assay on CAKI-1 renal, in the assay with SW-620 colon and with OVCAR-8 ovarian was above 50 µM throughout.
Turning to `Cc1c2cc[n+](C)cc2c(C)c2c1[nH]c1ccc(O)c(OCC(F)(F)F)c12`, the concentration for total growth inhibition (TGI) in the assay on TK-10 renal is 29.1 µM; in the assay with UACC-257 melanoma it was 18.9 µM; with SF-539 CNS it was 9.72 µM; in the assay on HT29 colon, above 55 µM; in the assay on COLO 205 colon, 12.6 µM; with SF-295 CNS, 3.76 µM. The total growth inhibition concentration (TGI) in the assay with 786-0 renal was 9.35 µM; in the assay with CAKI-1 renal, 29 µM; in the assay with SW-620 colon, above 55 µM; in the assay with OVCAR-8 ovarian, 25.5 µM.
Turning to `Nc1nc(CCC(=O)Nc2cccc(C(F)(F)F)c2)cc(-c2ccc3ccccc3c2)n1`, the TGI with TK-10 renal, with UACC-257 melanoma, in the assay with SF-539 CNS, in the assay with HT29 colon, in the assay on COLO 205 colon and with SF-295 CNS was above 100 µM in each case. Moreover, the TGI in the assay on 786-0 renal, in the assay on CAKI-1 renal, in the assay on SW-620 colon and with OVCAR-8 ovarian was above 100 µM each time.
As for `CC1CCN(CC(=O)N2c3ccccc3Sc3cc4ccccc4cc32)CC1`, the TGI with TK-10 renal, in the assay on UACC-257 melanoma, in the assay on SF-539 CNS, in the assay on HT29 colon, in the assay with COLO 205 colon and in the assay with SF-295 CNS was above 100 µM throughout. Besides, the concentration for total growth inhibition (TGI) in the assay with 786-0 renal, with CAKI-1 renal, in the assay with SW-620 colon and in the assay on OVCAR-8 ovarian was above 100 µM throughout.
As to `FCc1ncc(-c2ccc(C(F)(F)F)cc2)c(NC2CCCCCC2)n1`, the GI50 in the assay with TK-10 renal, with UACC-257 melanoma, with SF-539 CNS, with HT29 colon, in the assay with COLO 205 colon and with SF-295 CNS was above 10000 nM each time. The GI50 in the assay with 786-0 renal, in the assay with CAKI-1 renal, in the assay with SW-620 colon and with OVCAR-8 ovarian was above 10000 nM each time. Further, the TGI in the assay on TK-10 renal, in the assay on UACC-257 melanoma, with SF-539 CNS, in the assay on HT29 colon, in the assay on COLO 205 colon and in the assay with SF-295 CNS was above 10 µM in each case. The total growth inhibition concentration (TGI) in the assay with 786-0 renal, in the assay on CAKI-1 renal, in the assay on SW-620 colon and with OVCAR-8 ovarian was above 10 µM throughout.
